The values that follow come from PubChem BioAssay (NCI).

The structures appear in SMILES notation. Where “and” joins values, the source holds several entries; their conditions need not be identical. Equal entries are not always repeated.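 Exposure lasted 48 hours, with cells grown in 96-well plates and compounds tested at five concentrations. Abbreviation: GI50, concentration required for 50% inhibition of growth. TGI: concentration producing complete growth inhibition.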 Bounds are passed on as bounds.

Some test systems named below: SF-539 CNS; MDA-MB-231 breast; NCI/ADR-RES ovarian; A498 renal; SW-620 colon; U251 CNS; UACC-62 melanoma; K-562 leukemia.
Holding throughout (experiment): NCI-60 cell line screen, 48 h

On to `COc1ccc(/C=C/C(=O)c2ccc(Nc3nc(Nc4ccc(F)cc4)nc(Nc4ccc(Cl)cc4)n3)cc2)cc1`, for which the GI50 in the experiment with SF-539 CNS is 2.23 µM; in the experiment on MDA-MB-231 breast, 29.5 µM; in the experiment on NCI/ADR-RES ovarian it was greater than 100 µM; in the experiment on A498 renal it was greater than 100 µM; in the experiment with SW-620 colon, greater than 100 µM; in the experiment with U251 CNS, 49 µM. The GI50 was greater than 100 µM with UACC-62 melanoma and 15.4 µM in the experiment on K-562 leukemia. For the same molecule, the TGI was 19 µM with SF-539 CNS; greater than 100 µM with MDA-MB-231 breast; greater than 100 µM in the experiment on NCI/ADR-RES ovarian; greater than 100 µM with A498 renal; greater than 100 µM in the experiment with SW-620 colon; greater than 100 µM with U251 CNS. In addition, the TGI in the experiment with UACC-62 melanoma and in the experiment with K-562 leukemia was greater than 100 µM in each case.

For the molecule `O=C(c1cccs1)c1nc2cc(Cl)ccc2[n+]([O-])c1C(F)(F)F`, the GI50 is greater than 100 µM in the experiment with SF-539 CNS; greater than 100 µM with MDA-MB-231 breast; greater than 100 µM in the experiment with NCI/ADR-RES ovarian; 92 µM in the experiment with A498 renal; greater than 100 µM in the experiment with SW-620 colon; greater than 100 µM in the experiment on U251 CNS. Moreover, the GI50 in the experiment on UACC-62 melanoma was 67.8 µM; in the experiment with K-562 leukemia it was greater than 100 µM. The TGI with SF-539 CNS, in the experiment with MDA-MB-231 breast, in the experiment with NCI/ADR-RES ovarian, with A498 renal, in the experiment on SW-620 colon and with U251 CNS was greater than 100 µM each time. Further, the TGI in the experiment with UACC-62 melanoma and in the experiment on K-562 leukemia was greater than 100 µM each time.

Turning to `CCC(C)(C)[C@H](NC(=O)[C@H]1CCCCN1C)C(=O)N(C)[C@H](C[C@@H](OC(C)=O)c1nc(C(=O)N[C@@H](Cc2ccccc2)C[C@H](C)C(=O)O)cs1)C(C)C`, the GI50 in the experiment with SF-539 CNS was less than 0.00167 µM; with MDA-MB-231 breast it was less than 0.00167 µM; with NCI/ADR-RES ovarian, 0.00342 µM; with A498 renal, less than 0.00167 µM; in the experiment with SW-620 colon, less than 0.00167 µM; in the experiment on U251 CNS it was less than 0.00167 µM. The GI50 in the experiment on UACC-62 melanoma and in the experiment on K-562 leukemia was less than 0.00167 µM each time. Also, the TGI in the experiment with SF-539 CNS is less than 0.00167 µM; in the experiment on NCI/ADR-RES ovarian, greater than 16.7 µM; in the experiment with A498 renal it was 0.0113 µM; in the experiment on SW-620 colon, greater than 16.7 µM; with U251 CNS, greater than 16.7 µM; in the experiment on UACC-62 melanoma, greater than 16.7 µM. Also, in the experiment with K-562 leukemia, the TGI was greater than 16.7 µM.

For the molecule `N#Cc1c2ccccc2c2nnc3ccccc3n12`, the GI50 in the experiment on SW-620 colon was 23.1 µM; in the experiment on U251 CNS it was 17.7 µM; with K-562 leukemia it was 81.9 µM. Moreover, the values for the TGI with SW-620 colon, in the experiment with U251 CNS and in the experiment with K-562 leukemia were 91.8 µM, 70 µM and greater than 100 µM, respectively.

For `O=C(/C=C/c1nnc2n(Cc3ccccc3)c(=O)c3c4c(sc3n12)CCCC4)c1ccccc1`, the GI50 is greater than 100 µM in the experiment on SF-539 CNS; 0.219 µM in the experiment on MDA-MB-231 breast; greater than 100 µM in the experiment on A498 renal; 3.14 µM in the experiment with SW-620 colon; 2.22 µM in the experiment on U251 CNS; greater than 100 µM in the experiment with UACC-62 melanoma. In addition, the GI50 in the experiment with K-562 leukemia is 0.902 µM and 0.199 µM. The TGI was greater than 100 µM in the experiment on SF-539 CNS; 0.55 µM with MDA-MB-231 breast; greater than 100 µM in the experiment with A498 renal; 7.76 µM in the experiment with U251 CNS; greater than 100 µM in the experiment on UACC-62 melanoma; greater than 100 µM in the experiment with K-562 leukemia.

With `O=C(O)c1cn(C2CC2)c2cc(N3CCN(C(=O)Nc4nc(-c5ccc(Br)cc5)cs4)CC3)c(F)cc2c1=O`, the GI50 was 1.56 µM in the experiment on SF-539 CNS; 3.48 µM in the experiment with MDA-MB-231 breast; greater than 100 µM in the experiment on NCI/ADR-RES ovarian; 4.13 µM with SW-620 colon; 1.96 µM in the experiment on U251 CNS; 1.51 µM in the experiment on K-562 leukemia. The TGI in the experiment on SF-539 CNS, in the experiment on MDA-MB-231 breast, in the experiment on NCI/ADR-RES ovarian, with SW-620 colon, in the experiment with U251 CNS and with K-562 leukemia was greater than 100 µM throughout.

For the molecule `Cn1c(=O)c2[nH]c(CCCc3ccc([N+](=O)[O-])cc3)nc2n(C)c1=O`, the TGI with SF-539 CNS, with MDA-MB-231 breast, in the experiment with NCI/ADR-RES ovarian, in the experiment with A498 renal, in the experiment with U251 CNS and in the experiment on UACC-62 melanoma was greater than 100 µM throughout. In addition, in the experiment on K-562 leukemia, the TGI was greater than 100 µM.

Regarding `C=C1C(=O)OC2CC1C(OC(C)=O)C/C(C)=C/CC/C(C)=C\CCC2(C)O` (configuration not stated), the TGI was 18.4 µM and 12.7 µM with SF-539 CNS; 22.5 µM and 22.2 µM in the experiment on MDA-MB-231 breast; 15.4 µM and 17.4 µM in the experiment on NCI/ADR-RES ovarian; 17.1 µM and 21.4 µM with A498 renal; 12.6 µM and 8.91 µM in the experiment on SW-620 colon; 25.2 µM and 26.7 µM in the experiment with U251 CNS. For the same molecule, the TGI in the experiment with UACC-62 melanoma is 26.1 µM and 12.9 µM. Further, in the experiment on UACC-62 melanoma, the GI50 is 11.3 µM and 2.89 µM.

As for `O=C(O)CNCCc1ccccc1`, the TGI in the experiment with MDA-MB-231 breast, in the experiment with NCI/ADR-RES ovarian, with A498 renal, in the experiment on SW-620 colon, with U251 CNS and in the experiment on UACC-62 melanoma was greater than 100 µM each time. The TGI in the experiment with K-562 leukemia was greater than 100 µM.

In the case of `O=c1[nH]c2ccccc2n2cc3ccccc3c12`, the GI50 is 5.11 µM in the experiment on SF-539 CNS; 0.948 µM with MDA-MB-231 breast; 6.45 µM in the experiment on NCI/ADR-RES ovarian; 11.1 µM with A498 renal; 3.69 µM with SW-620 colon; 3.25 µM in the experiment with U251 CNS. In addition, the GI50 in the experiment with UACC-62 melanoma was 3.22 µM. The TGI in the experiment on SF-539 CNS was 22.2 µM; with MDA-MB-231 breast it was 10.2 µM; with NCI/ADR-RES ovarian it was 32.1 µM; in the experiment on A498 renal, 26.7 µM; with SW-620 colon, greater than 100 µM; in the experiment on U251 CNS, 13.4 µM. For the same molecule, in the experiment on UACC-62 melanoma, the TGI came to 15.8 µM.

In the case of `NCCCNc1nc2ccc(Cl)cc2c2c(=O)c3cc(F)ccc3sc12`, the GI50 was 3.79 µM in the experiment on SF-539 CNS; 1.78 µM in the experiment on MDA-MB-231 breast; 2.23 µM with NCI/ADR-RES ovarian; 6.1 µM with A498 renal; 1.74 µM with SW-620 colon; 2.83 µM in the experiment on UACC-62 melanoma. In the experiment on K-562 leukemia, the GI50 is 1.74 µM. Also, the TGI stood at 14.3 µM in the experiment on SF-539 CNS; 4.09 µM in the experiment on MDA-MB-231 breast; 5.62 µM in the experiment with NCI/ADR-RES ovarian; 21 µM in the experiment on A498 renal; 3.32 µM in the experiment on SW-620 colon; 8.41 µM in the experiment on UACC-62 melanoma. In addition, the TGI in the experiment on K-562 leukemia turned out to be 3.73 µM.

As for `Cc1cc(C(O)(c2ccc(Nc3ccccc3)cc2)c2ccc(Nc3ccc(S(=O)(=O)O)cc3)cc2)ccc1N` (configuration not stated), the GI50 was 1.64 µM in the experiment with SF-539 CNS; 1.83 µM in the experiment on NCI/ADR-RES ovarian; 1.58 µM in the experiment on A498 renal; 0.818 µM in the experiment with SW-620 colon; 0.772 µM in the experiment on U251 CNS; 0.499 µM in the experiment with UACC-62 melanoma. Besides, the GI50 in the experiment with K-562 leukemia was 0.911 µM. The TGI in the experiment on SF-539 CNS worked out at 3.32 µM; in the experiment with NCI/ADR-RES ovarian, 4.58 µM; with A498 renal it was 3.51 µM; in the experiment with SW-620 colon, 3.27 µM; with U251 CNS it was 2.05 µM; in the experiment with UACC-62 melanoma, 2.12 µM. For the same molecule, the TGI with K-562 leukemia is greater than 100 µM.
